Experimental data as given in patent US9999616B2 (ZENITH EPIGENETICS LTD., priority 2013, dated 2018).

What was measured:
hIL-6 mRNA = experiment: Inhibition of hIL-6 mRNA transcription in LPS-stimulated U937 macrophages; format: cell-based, Human; conditions: Homo sapiens, U-937, PMA-differentiated U937 cells, 1 h pretreatment, LPS 3 h, read-out: IL-6 activity
Procedure, shortened: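 PMA-differentiated U937 macrophages (60 ng/mL PMA, 3 days) pretreated 1 h with compound in 0.1% DMSO, then stimulated with 1 ug/mL E. coli LPS for 3 h at 37° C. IL-6 mRNA quantified by one-step TaqMan qRT-PCR, normalized to cyclophilin; fold expression relative to control, triplicate wells.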

[1] = biological target: T1, Brd4 bromodomain 1 (BRD4(1)) (Homo sapiens, UniProt O60885); experiment: Inhibition of tetra-acetylated histone H4 binding to Brd4 bromodomain 1, measured by FRET (HTRF); parameters: made in house; host or cells: E. coli BL21(DE3); conditions: 2 h at room temperature
Procedure, shortened: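 Inhibition was read as a drop in 665 nm relative to 620 nm HTRF signal after 2 h at room temperature, with IC50 from dose-response curves in duplicate wells. Reactions held 200 nM E. coli-expressed His-tagged bromodomain and 25-50 nM biotinylated tetra-acetylated histone H4 peptide. Buffer was 30 mM HEPES pH 7.4 with KF, CHAPS, BSA and 0.2% DMSO.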

hApoA-1 mRNA = experiment: Up-regulation of hApoA-1 mRNA transcription in Huh7 cells; format: cell-based; conditions: Homo sapiens, Huh-7, EC170 of hApoA-1 mRNA up-regulation, 48 h, read-out: ApoA-1 activity
Description: Huh7 cells (2.5×10^5 per well) were plated in a 96-well plate using 100 μL DMEM per well, (Gibco DMEM supplemented with penicillin/streptomycin and 10% FBS), 72 h before the addition of the compound. The cells are treated with increasing concentrations of the compound or DMSO (0.1%), and incubated at 37° C., 5% CO2 for 48 h. Spent media was removed from the Huh-7 cells and placed on ice for immediate use with the “LDH cytotoxicity assay Kit II” from Abcam. The cells remaining in the plate were rinsed with 100 μL PBS. Cells were harvested using the mRNA Catcher PLUS kit according to manufacturer's instructions. The eluted mRNA was then used in a one-step quantitative real-time PCR reaction, using components of the RNA UltraSense™ One-Step Kit (Life Technologies) together with Applied Biosystems TaqMan® primer-probes for hApoA-1 and Cyclophilin. Real-time PCR plates were run on a ViiA™7 real time PCR machine (Applied Biosystems), data was analyzed, normalizing the Ct values for hApoA-1 to an internal control, prior to determining the fold induction of each unknown sample, relative to the control.

[2] = system: c-myc in Human AML MV4-11 cells; experiment: Inhibition of cMYC expression (mRNA, real-time PCR) in MV4-11 cells; format: cell-based; conditions: 3 h treatment, cMYC mRNA by real-time PCR
Procedure, shortened: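 MV4-11 cells in IMDM with 10% FBS were treated with increasing compound concentrations (DMSO 0.1%) for 3 h at 37 °C, in triplicate. Isolated mRNA was quantified by one-step TaqMan RT-qPCR, cMYC Ct normalized to cyclophilin, and fold expression given relative to DMSO control.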

hIL-17 mRNA = experiment: Inhibition of hIL-17 mRNA transcription in OKT3-stimulated peripheral blood mononuclear cells; format: cell-based; conditions: human PBMC, OKT3 stimulation 6 h, read-out: IL-17 Activity
Description: Human peripheral blood mononuclear cells were plated (2.0×10^5 cells per well) in a 96-well plate in 45 μL OpTimizer T Cell expansion media (Life Technologies) containing 20 ng/ml IL-2 and penicillin/streptomycin. The cells were treated with increasing concentrations of the test compound or DMSO (0.1%), and incubated at 37° C., 5% CO2 for 1 h before addition of 10× stock OKT3 antibody at 10 ug/ml in media. Triplicate wells were used for each concentration. Cells were incubated at 37° C., 5% CO2 for 6 h before the cells were harvested. At time of harvest, cells were pelleted by centrifugation at 800 rpm for 5 min. Cells were harvested using the mRNA Catcher PLUS kit according to manufacturer's instructions. The eluted mRNA was then used in a one-step quantitative real-time PCR reaction, using components of the RNA UltraSense™ One-Step Kit (Life Technologies) together with Applied Biosystems TaqMan® primer-probes for hIL-17 and Cyclophilin. Real-time PCR plates were run on a ViiA™7 real time PCR machine (Applied Biosystems), data was analyzed, normalizing the Ct values for hIL-17 to an internal control, prior to determining the fold induction of each unknown sample, relative to the control.

Human AML MV-4-11 cells = experiment: Inhibition of cell proliferation in MV4-11 cells (CellTiter Aqueous One); format: cell-based; conditions: MV4-11, 72 h
Procedure, shortened: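 MV4-11 cells, 5×10^4 per well in IMDM with 10% FBS, were exposed to increasing compound concentrations or 0.1% DMSO for 72 h at 37 °C in triplicate. Viability was read by MTS (CellTiter Aqueous One) absorbance at 490 nm after 3-4 h. IC50 was derived from background-corrected signal relative to DMSO.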

[3] = biological target: T1, Brd4 bromodomain 1 (BRD4(1)); experiment: Inhibition of tetra-acetylated histone H4 binding to Brd4 bromodomain 1, measured by FRET (HTRF); parameters: to Brd4 bromodomain 1 (BRD4(1) as Measured by FRET); made in house; host or cells: E. coli BL21(DE3); conditions: 2 h at room temperature
Description: Proteins were cloned and overexpressed with a N-terminal 6×His tag, then purified by nickel affinity followed by size exclusion chromatography. Briefly, E. coli BL21(DE3) cells were transformed with a recombinant expression vector encoding N-terminally Nickel affinity tagged bromodomains from Brd2, Brd3, Brd4. Cell cultures were incubated at 37° C. with shaking to the appropriate density and induced overnight with IPTG. The supernatant of lysed cells was loaded onto Ni-IDA column for purification. Eluted protein was pooled, concentrated and further purified by size exclusion chromatography. Fractions representing monomeric protein were pooled, concentrated, aliquoted, and frozen at −80° C. for use in subsequent experiments.
Binding of tetra-acetylated histone H4 and BET bromodomains was confirmed by a Homogenous Time Resolved Fluorescence Resonance Energy Transfer (HTRF®) method. […] After a 2 h incubation at room temperature, fluorescence was measured at 665 and 620 nm with a SynergyH4 plate reader (Biotek). The binding inhibitory activity was shown by a decrease in 665 nm relative to 620 nm fluorescence. IC50 values were determined from a dose response curve.

MV4-11 cells = experiment: In vivo efficacy in athymic nude mouse acute myeloid leukemia xenograft model using MV4-11 cells; conditions: athymic nude mouse AML xenograft (MV4-11), oral dosing
Description: MV4-11 cells (ATCC) were grown under standard cell culture conditions and (NCr) nu/nu fisol strain of female mice age 6-7 weeks were injected with 5×10^6 cells/animal in 100 μL PBS+100 μL Matrigel in the lower left abdominal flank. By approximately day 18-21 after MV4-11 cells injection, mice were randomized based on tumor volume (L×W×H)/2) of average ˜100-300 mm^3. Mice were dosed orally with compound at 5 to 120 mg/kg b.i.d and/or q.d. on a continuous dosing schedule and at 2.5 to 85 mg/kg q.d. on a 5 day on 2 day off, 100 mg/kg q.d. on a 4 day on and 3 day off, 135 mg/kg q.d. on a 3 day on and 4 day off, 180 mg/kg on a 2 day on and 5 day off and 240 mg/kg on a 1 day on and 6 days off dosing schedules in EA006 formulation at 10 mL/kg body weight dose volume. Tumor measurements were taken with electronic micro calipers and body weights measured on alternate days beginning from dosing period. The average tumor volumes, percent Tumor Growth Inhibition (TGI) and % change in body weights were compared relative to Vehicle control animals. The means, statistical analysis and the comparison between groups were calculated using Student's t-test in Excel.

Cc1nn(C)c(C)c1CNc1cc(-c2c(C)noc2C)cc2[nH]cnc12 [Example Compound 37, 6-(3,5-dimethyl-isoxazol-4-yl)-N-((1,3,5-trimethyl-1H-pyrazol-4-yl)methyl)-1H-benzo[d] imidazol-4-amine]
IC50 (hIL-6 mRNA): 300 to 3000 nM
IC50 [1]: ≤ 300 nM
EC170 (hApoA-1 mRNA): ≤ 0.3 µM
IC50 [2]: 300 to 3000 nM
IC50 (hIL-17 mRNA): 300 to 3000 nM
IC50 (Human AML MV-4-11 cells): 300 to 3000 nM

Cc1nc2c(-c3cn(C)nc3C)cc(-c3c(C)noc3C)cc2[nH]1 [Example Compound 60, 4-(4-(1,3-dimethyl-1H-pyrazol-4-yl)-2-methyl-1H-benzo[d]imidazol-6-yl)-3,5-dimethyl-isoxazole]
IC50 (hIL-6 mRNA): ≤ 300 nM
IC50 [1]: ≤ 300 nM
EC170 (hApoA-1 mRNA): ≤ 0.3 µM
IC50 [2]: ≤ 300 nM
IC50 (hIL-17 mRNA): 300 to 3000 nM
IC50 (Human AML MV-4-11 cells): 300 to 3000 nM

Cc1nc2c(-c3c(C)cncc3C)cc(-c3c(C)noc3C)cc2[nH]1 [Example Compound 97, 4-(4-(3,5-dimethyl-pyridin-4-yl)-2-methyl-1H-benzo[d]imidazol-6-yl)-3,5-dimethyl isoxazole]
IC50 (hIL-6 mRNA): ≤ 300 nM
IC50 [1]: ≤ 300 nM
EC170 (hApoA-1 mRNA): ≤ 0.3 µM
IC50 [2]: 300 to 3000 nM
IC50 (hIL-17 mRNA): 300 to 3000 nM
IC50 (Human AML MV-4-11 cells): 300 to 3000 nM

Cc1ncccc1-c1cc(-c2c(C)noc2C)cc2cn[nH]c12 [Example Compound 70]
IC50 (hIL-6 mRNA): 300 to 3000 nM
IC50 [3]: ≤ 300 nM
IC50 [2]: 300 to 3000 nM
IC50 (Human AML MV-4-11 cells): 300 to 3000 nM

Cc1ncccc1-c1cc(-c2c(C)noc2C)cc2[nH]cnc12 [Example Compound 27, 3,5-dimethyl-4-(4-(2-methylpyridin-3-yl)-1H-benzo[d]imidazol-6-yl)isoxazole]
IC50 (hIL-6 mRNA): ≤ 300 nM
IC50 [1]: ≤ 300 nM
In vivo activity (MV4-11 cells): Active
IC50 [2]: 300 to 3000 nM
IC50 (hIL-17 mRNA): ≤ 300 nM
IC50 (Human AML MV-4-11 cells): 300 to 3000 nM

Cc1noc(C)c1-c1cc(NCc2ccccc2)c2nc[nH]c2c1 [Example Compound 4]
IC50 (hIL-6 mRNA): 300 to 3000 nM
IC50 [1]: ≤ 300 nM
EC170 (hApoA-1 mRNA): 3 to 30 µM
IC50 [2]: 300 to 3000 nM
IC50 (hIL-17 mRNA): 300 to 3000 nM
IC50 (Human AML MV-4-11 cells): 300 to 3000 nM
